According to ChEMBL document CHEMBL3885861, “Open TG-GATES”:

Species: Rattus norvegicus
Test: Open TG-GATES - Regimen: Single
Type: toxicity, organism-based, Sprague-Dawley
Set-up: regimen Single, gender Male, age 6 weeks
Settings: in vivo, po, 30 mg/kg, route gavage, dose level High; for Bas / Eos / Ht / Lym / MCHC / Ret / WBC: tissue Blood; for KIDNEY_L / KIDNEY_R / KIDNEY_TOTAL: tissue Kidney; for LIVER: tissue Liver; for ALP / ALT / BUN / CRE / DBIL / GLC / IP / K / Na / RALB / TBIL / TG / TP / gamma-GTP / PL: tissue Plasma

CNCCC(Oc1ccc(C(F)(F)F)cc1)c1ccccc1.Cl (stereo not given) [FLUOXETINE HYDROCHLORIDE]
TERMINAL_BW (3 h): 214.6 g | Bas (3 h): 0% | Eos (3 h): 1.2% | Ht (3 h): 39.9% | Lym (3 h): 67.4% | MCHC (3 h): 32.6% | Ret (3 h): 8.7% | WBC (3 h): 79.4 x10_2/uL | KIDNEY_L (3 h): 0.9 g | KIDNEY_R (3 h): 1 g | KIDNEY_TOTAL (3 h): 1.9 g | LIVER (3 h): 9.8 g | ALP (3 h): 1364.6 IU/L | ALT (3 h): 36.4 IU/L | BUN (3 h): 10.6 mg/dL | CRE (3 h): 0.4 mg/dL | DBIL (3 h): 0.01 mg/dL | GLC (3 h): 201.4 mg/dL | IP (3 h): 10.1 mg/dL | K (3 h): 4.4 meq/L | Na (3 h): 138.6 meq/L | RALB (3 h): 4.1 g/dL | TBIL (3 h): 0.048 mg/dL | TG (3 h): 77.8 mg/dL | TP (3 h): 5.7 g/dL | gamma-GTP (3 h): 0.2 IU/L | TERMINAL_BW (6 h): 217.1 g | Bas (6 h): 0% | Eos (6 h): 1.2% | Ht (6 h): 42% | Lym (6 h): 73.2% | MCHC (6 h): 32.3% | Ret (6 h): 6.9% | WBC (6 h): 82.6 x10_2/uL | KIDNEY_L (6 h): 0.9 g | KIDNEY_R (6 h): 1 g | KIDNEY_TOTAL (6 h): 1.9 g | LIVER (6 h): 9.3 g | ALP (6 h): 1193 IU/L | ALT (6 h): 31 IU/L | BUN (6 h): 9.2 mg/dL | CRE (6 h): 0.4 mg/dL | DBIL (6 h): 0.01 mg/dL | GLC (6 h): 198.8 mg/dL | IP (6 h): 9.9 mg/dL | K (6 h): 5.2 meq/L | Na (6 h): 137.7 meq/L | PL (6 h): 134.4 mg/dL | RALB (6 h): 3.8 g/dL | TBIL (6 h): 0.038 mg/dL | TG (6 h): 47.2 mg/dL | TP (6 h): 5.4 g/dL | gamma-GTP (6 h): 1 IU/L | TERMINAL_BW (9 h): 211.4 g | Bas (9 h): 0% | Eos (9 h): 0.8% | Ht (9 h): 40.9% | Lym (9 h): 77.8% | MCHC (9 h): 32.4% | Ret (9 h): 7.1% | WBC (9 h): 90.6 x10_2/uL | KIDNEY_L (9 h): 0.9 g | KIDNEY_R (9 h): 1 g | KIDNEY_TOTAL (9 h): 1.9 g | LIVER (9 h): 9 g | ALP (9 h): 1165 IU/L | ALT (9 h): 28.8 IU/L | BUN (9 h): 8.4 mg/dL | CRE (9 h): 0.4 mg/dL | DBIL (9 h): 0.01 mg/dL | GLC (9 h): 202.8 mg/dL | IP (9 h): 11.1 mg/dL | K (9 h): 5.1 meq/L | Na (9 h): 138.2 meq/L | PL (9 h): 145.2 mg/dL | RALB (9 h): 3.9 g/dL | TBIL (9 h): 0.048 mg/dL | TG (9 h): 53 mg/dL | TP (9 h): 5.4 g/dL | gamma-GTP (9 h): 0.2 IU/L | TERMINAL_BW (24 h): 222.3 g | Bas (24 h): 0% | Eos (24 h): 1% | Ht (24 h): 40.1% | Lym (24 h): 75.4% | MCHC (24 h): 32.6% | Ret (24 h): 7.8% | WBC (24 h): 81 x10_2/uL | KIDNEY_L (24 h): 1 g | KIDNEY_R (24 h): 1 g | KIDNEY_TOTAL (24 h): 2 g | LIVER (24 h): 10.5 g | ALP (24 h): 1406.6 IU/L | ALT (24 h): 31 IU/L | CRE (24 h): 0.4 mg/dL | DBIL (24 h): 0.01 mg/dL | GLC (24 h): 200 mg/dL | IP (24 h): 8 mg/dL | K (24 h): 5.2 meq/L | Na (24 h): 138.1 meq/L | RALB (24 h): 4 g/dL | TBIL (24 h): 0.028 mg/dL | TG (24 h): 100.4 mg/dL | TP (24 h): 5.7 g/dL | gamma-GTP (24 h): 1 IU/L
